Experimental data published in ChEMBL document CHEMBL3259816, “Interactions of cyclic and non-cyclic naphthalene diimide derivatives with different nucleic acids” (Bioorg Med Chem, 2014).
Activity calls are given as the source filed them. The rule behind the calls is not given here.

Assays:
[1] = Binding affinity to 5'-AGGG(TTAGGG)3-3' DNA (unknown origin) assessed as change in melting temperature by spectropolarimetry in presence of K+
[2] = Binding affinity to 5'-AGGG(TTAGGG)3-3' DNA (unknown origin) assessed as change in melting temperature by spectropolarimetry in presence of Na+
[3] = Binding affinity to double strand 5'-GGGAGGTTTCGC-3' and 5'-GCGAAACCTCCC-3' DNA (unknown origin) assessed as change in melting temperature by spectrophotometry in presence of K+
[4] = Binding affinity to double strand 5'-GGGAGGTTTCGC-3' and 5'-GCGAAACCTCCC-3' DNA (unknown origin) assessed as change in melting temperature by spectrophotometry in presence of Na+
[5] = Binding affinity to 5'-AGGG(TTAGGG)3-3' DNA (unknown origin) by Benesi-Hildebrand method in presence of K+
[6] = Binding affinity to 5'-AGGG(TTAGGG)3-3' DNA (unknown origin) by Benesi-Hildebrand method in presence of Na+
[7] = Binding affinity to double strand 5'-GGGAGGTTTCGC-3' and 5'-GCGAAACCTCCC-3' DNA (unknown origin) by Benesi-Hildebrand method in presence of K+
[8] = Binding affinity to double strand 5'-GGGAGGTTTCGC-3' and 5'-GCGAAACCTCCC-3' DNA (unknown origin) by Benesi-Hildebrand method in presence of Na+
[9] = Binding affinity to poly (dA-dT)2 dsDNA (unknown origin) assessed as change in melting temperature at 1:0.05 DNA/ligand ratio by absorbance melting method in presence of Na+
[10] = Binding affinity to poly (dA-dT)2 dsDNA (unknown origin) assessed as change in melting temperature at 1:0.1 DNA/ligand ratio by absorbance melting method in presence of Na+
[11] = Binding affinity to poly (dA-dT)2 dsDNA (unknown origin) assessed as change in melting temperature at 1:0.15 DNA/ligand ratio by absorbance melting method in presence of Na+
[12] = Binding affinity to poly (dA-dT)2 dsDNA (unknown origin) assessed as change in melting temperature at 1:0.3 DNA/ligand ratio by absorbance melting method in presence of Na+
Nucleic Acid [13] = assay: Binding affinity to double strand 5'-GGGAGGTTTCGC-3' and 5'-GCGAAACCTCCC-3' DNA (unknown origin) assessed as DNA intercalation at 0.5 to 6.75 uM by circular dichroism analysis in presence of K+; format: nucleic-acid assay
Nucleic Acid [14] = assay: Binding affinity to double strand 5'-GGGAGGTTTCGC-3' and 5'-GCGAAACCTCCC-3' DNA (unknown origin) assessed as DNA intercalation at 0.5 to 6.75 uM by circular dichroism analysis in presence of Na+; format: nucleic-acid assay
Nucleic Acid [15] = assay: Binding affinity to double strand 5'-GGGAGGTTTCGC-3' and 5'-GCGAAACCTCCC-3' DNA (unknown origin) assessed as DNA intercalation at 0.75 to 11.25 uM by circular dichroism analysis in presence of K+; format: nucleic-acid assay
Nucleic Acid [16] = assay: Binding affinity to double strand 5'-GGGAGGTTTCGC-3' and 5'-GCGAAACCTCCC-3' DNA (unknown origin) assessed as DNA intercalation at 0.75 to 11.25 uM by circular dichroism analysis in presence of Na+; format: nucleic-acid assay
Calf thymus DNA = assay: Binding affinity to calf thymus DNA assessed as DNA intercalation at 5 to 50 uM by circular dichroism analysis in presence of NaCl; format: nucleic-acid assay; conditions: Bos taurus
Nucleic Acid [17] = assay: Binding affinity to poly (dA-dT)2 dsDNA (unknown origin) assessed as DNA intercalation at 5 to 50 uM by circular dichroism analysis in presence of NaCl; format: nucleic-acid assay
Nucleic Acid [18] = assay: Binding affinity to poly (dG-dC)2 dsDNA (unknown origin) assessed as DNA intercalation at 5 to 50 uM by circular dichroism analysis in presence of NaCl; format: nucleic-acid assay
[19] = Stabilization of 5'-AGGG(TTAGGG)3-3' DNA (unknown origin) assessed as G-quadruplex formation at 1:0.3 to 1:4.5 DNA/ligand molar ratio by circular dichroism analysis in presence of KCl
[20] = Stabilization of 5'-AGGG(TTAGGG)3-3' DNA (unknown origin) assessed as G-quadruplex formation at 1:0.3 to 1:4.5 DNA/ligand molar ratio by circular dichroism analysis in presence of NaCl
[21] = Binding affinity to 5'-AGGG(TTAGGG)3-3' DNA (unknown origin) assessed as assessed as G-quadruplex formation at 2:1 DNA/ligand molar ratio by circular dichroism analysis in presence of KCl
[22] = Inhibition of telomerase (unknown origin) incubated for 60 mins at 30 degC followed by 5 mins at 95 degC by TRAP assay; set-up: species or system Homo sapiens
Escherichia coli [23] = assay: Binding affinity to Escherichia coli pUC19 DNA assessed as formation of supercoiled DNA at 0.4 to 2.4 uM after 1 hr by agarose gel electrophoresis
Escherichia coli [24] = assay: Binding affinity to Escherichia coli pUC19 DNA assessed as formation of supercoiled DNA at 1 to 5 uM after 1 hr by agarose gel electrophoresis

SMILES | ΔTm [1] [°C] | ΔTm [2] [°C] | ΔTm [3] [°C] | ΔTm [4] [°C] | Kb [5] [×10⁶ /M] | Kb [6] [×10⁶ /M] | Kb [7] [×10⁶ /M] | Kb [8] [×10⁶ /M] | ΔTm [9] [°C] | ΔTm [10] [°C] | ΔTm [11] [°C] | ΔTm [12] [°C] | Activity (Nucleic Acid [13]) | Activity (Nucleic Acid [14]) | Activity (Nucleic Acid [15]) | Activity (Nucleic Acid [16]) | Activity (Calf thymus DNA) | Activity (Nucleic Acid [17]) | Activity (Nucleic Acid [18]) | Activity [19] | other results
O=C1NCCCN2CCN(CCCN3C(=O)c4ccc5c6c(ccc(c46)C3=O)C(=O)N(CCCN3CCN(CCCNC(=O)c4ccc1cc4)CC3)C5=O)CC2 | 9 | 3 | 10 | 10 | 3.7 | 0.9 | 2.6 | 2.5 | 9 | 14 | 18 | 24 | Active | Active | Active | Active | Active | Active | Active | Active | Activity [20]: Active; Activity [21]: Active; EC50 [22]: 0.35 µM; Activity (Escherichia coli [23]): Active; Activity (Escherichia coli [24]): Active
CN(C)CCCN1C(=O)c2ccc3c4c(ccc(c24)C1=O)C(=O)N(CCCN(C)C)C3=O | 6 | 1 | 5 | 5 | 1.4 | 0.7 | 1 | 1 | 2 | 4 | 7 | 13 | Active | Active | Active | Active | Active | Active | Active | Active | Activity [20]: Active; Activity [21]: Active; EC50 [22]: 6 µM; Activity (Escherichia coli [23]): Active; Activity (Escherichia coli [24]): Active
